The structures appear in SMILES notation. A value given as a limit tells only on which side of the number the result lay.

The subject of the assay is RSV A2. Briefly: RSV antiviral cytopathic effect (CPE) assay, MTT readout. It counts as cell-based. The note with it: human respiratory syncytial virus, HEp-2, 120 h; HEp2 cells infected with RSV A2, moi ~0.01, 5 days; compounds of Table 2; read-out: Activity Range (EC50, RSV A2 antiviral). The protocol: Biological Data Method P: RSV Antiviral Assay Protocol
Compounds of the invention were tested for their antiviral activity against respiratory syncytial virus. Cytopathic effect (CPE) assays were performed essentially as described in the literature (see for example Watanabe et al, 1994, J. Virological Methods, 48:257). Serial dilutions of the test compounds were made in 96 well plates. HEp2 cells (1.0×10^4 cells/well) were infected with RSV at a low multiplicity of infection (e.g. RSV A2 at an moi of ˜0.01) and added to plates to assess antiviral activity. Uninfected HEp2 cells were used to assess compound cytotoxicity. Assays were incubated for 5 days at 37° C. in a 5% CO2 atmosphere. The extent of CPE was determined via metabolism of the vital dye 3-(4, 5-dimethylthiaxol-2-yl)-2,5-diphenyltetrazolium bromide (MTT). MTT (1 mg/ml) was added to each well and plates incubated for 2 hours incubation at 37° C. Wells were aspirated, iso-propanol (200 μL) was added and absorbance values read at 540/690 nm. Compound concentrations that inhibited CPE by 50% (EC50) and developed cytotoxicity (CC50) were calculated using non-linear regression analysis.
On to `O=C(c1ccc(F)cc1)N1CCN2C(=O)c3ccccc3CC12c1ccccc1` (stereo not drawn) [Compound 1-001], for which the EC50 lay within 250 to 1000 nM.
Then `O=C(c1csc(-c2cccnc2)n1)N1CCN2C(=O)c3ccccc3CC12c1ccccc1` (stereo not drawn) [Compound 1-002], with 250 to 1000 nM; and `O=C(c1cccnc1)N1CCN2C(=O)c3ccccc3CC12c1ccccc1` (stereo not drawn) [Compound 1-003], with 250 to 1000 nM.
For `O=C(c1ccc(F)cc1)N1CCN2C(=O)c3ccccc3CC12c1ccc(Cl)cc1` (stereo not drawn) [Compound 1-005], the EC50 is more than 5000 nM.
To `O=C(c1ccoc1)N1CCN2C(=O)c3ccccc3CC12c1ccc(Cl)cc1` (stereo not drawn) [Compound 1-006] belongs less than 250 nM.
To `O=C(c1ccc(F)nc1)N1CCN2C(=O)c3ccccc3CC12c1ccc(Cl)cc1` (stereo not drawn) [Compound 1-007] belongs 1000 to 5000 nM; to `O=C(c1cccnc1)N1CCN2C(=O)c3ccccc3CC12c1ccc(Cl)cc1` (stereo not drawn) [Compound 1-008, 10a-(4-Chlorophenyl)-1-(pyridine-3-carbonyl)-2,3,10,10a-tetrahydro-1H-imidazo[1,2-b]isoquinolin-5-one], 1000 to 5000 nM.
To `O=C(c1ccoc1)N1CCN2C(=O)c3ccncc3CC12c1ccc(Cl)cc1` (stereo not drawn) [Compound 1-010] belongs 250 to 1000 nM; to `O=C(c1cccnc1)N1CCN2C(=O)c3cccnc3CC12c1ccc(Cl)cc1` (stereo not drawn) [Compound 1-014], 1000 to 5000 nM; to `O=C(NCCc1ccccc1)N1CCN2C(=O)c3cccnc3CC12c1ccc(Cl)cc1` (stereo not drawn) [Compound 1-015], 250 to 1000 nM.
Regarding `O=C1c2ccccc2CC2(c3ccc(Cl)cc3)N1CCN2C(=O)c1sccc1Cl` (stereo not drawn) [Compound 1-019], the EC50 was in the range of 250 to 1000 nM.
Regarding `O=C(c1ccno1)N1CCN2C(=O)c3ccccc3CC12c1ccc(Cl)cc1` (stereo not drawn) [Compound 1-025], the concentration giving a half-maximal response (EC50) lay in the range of 1000 to 5000 nM.
Then `Cn1cc(C(=O)N2CCN3C(=O)c4ccccc4CC32c2ccc(Cl)cc2)c(C(F)(F)F)n1` (stereo not drawn) [Compound 1-029], with 250 to 1000 nM; and `O=C(c1ccoc1)N1CCN2C(=O)c3cccnc3CC12c1ccc(Cl)cc1` (stereo not drawn) [Compound 1-043], with less than 250 nM; and `O=C(Cc1ccccn1)N1CCN2C(=O)c3ccccc3CC12c1ccc(Cl)cc1` (stereo not drawn) [Compound 1-066], with 1000 to 5000 nM.
Then `COc1ccc(CC(=O)N2CCN3C(=O)c4ccccc4CC23c2ccc(Cl)cc2)cc1` (stereo not drawn) [Compound 1-069], with 250 to 1000 nM; and `O=C(c1ccoc1)N1CCN2C(=O)c3cccc(F)c3CC12c1ccc(Cl)cc1` (stereo not drawn) [Compound 1-071], with less than 250 nM.
For `O=C(c1ccc(F)cc1)N1CCN2C(=O)c3cccc(F)c3CC12c1ccc(Cl)cc1` (stereo not drawn) [Compound 1-073], the EC50 was 250 to 1000 nM.
Then `CCC(=O)N1CCN2C(=O)c3ccccc3CC12c1ccc(Cl)cc1` (stereo not drawn) [Compound 1-077], with 1000 to 5000 nM; and `O=C(CNS(=O)(=O)c1ccc(F)cc1)N1CCN2C(=O)c3ccccc3CC12c1ccc(Cl)cc1` (stereo not drawn) [Compound 1-079, N-{2-[10a-(4-Chlorophenyl)-5-oxo-2,3,10,10a-tetrahydro-5H-imidazo[1,2-b]isoquinolin-1-yl]-2-oxoethyl}-4-fluorobenzenesulfonamide], with 250 to 1000 nM; and `O=C(c1cccnc1)N1CCN2C(=O)c3ccc(F)cc3CC12c1ccc(Cl)cc1` (stereo not drawn) [Compound 1-083], with 250 to 1000 nM.
To `Cn1cc(C(=O)N2CCN3C(=O)c4cccc(F)c4CC23c2ccc(Cl)cc2)c(C(F)(F)F)n1` (stereo not drawn) [Compound 1-087] belongs less than 250 nM; to `O=C(c1cccs1)N1CCN2C(=O)c3cccnc3CC12c1ccc(Cl)cc1` (stereo not drawn) [Compound 1-101], less than 250 nM.
Then `O=C(c1ccc(F)cc1)N1CCN2C(=O)c3ncccc3CC12c1ccc(Cl)cc1` (stereo not drawn) [Compound 1-109], with 1000 to 5000 nM.

(Values after patent publication US9675694B2, “Polycyclic agents for the treatment of respiratory syncytial virus infections” (Biota Scientific Management Pty Ltd., priority 2006, dated 2017).)
